Experimental findings from patent publication US20260125371A1, “METHOD FOR INHIBITING CLOSTRIDIOIDES DIFFICILE SPORE GERMINATION” (UNIVERSITY OF NOTRE DAME DU LAC, priority 2022, published 2026) are described below.

Data set [1] has as its system C. difficile ATCC 43255. In words: Determination of minimal-inhibitory concentrations (microdilution), C. difficile ATCC 43255. It counts as cell-based, Clostridioides difficile. The settings on record: for MIC: Clostridioides difficile. Background: Dilution methods test growth across graded concentrations, often in twofold steps.
Data set [2] relates to THP-1 cells. Kind of data set: Lactate dehydrogenase (LDH) cytotoxicity assay. The note with it: Homo sapiens. It counts as cell-based, human.
Data set [3] has as its system HepG2 cells. In words: XTT cytotoxicity assay. It counts as cell-based. The note with it: Homo sapiens, HepG2, read-out: XTT IC50.
The nature of data set [4]: Solubility observed during characterisation. The note with it: DMSO, room temperature.
Setting [5] is: ATCC43255, 24 h, C. difficile ATCC 43255, 24 h, read-out: MIC (μg/mL) 24 h.

In brackets after ≈: the same amount, converted by molar mass. Where two headings read alike, the source gives them in different places.

What is called IC50 is the concentration at which inhibition is half-maximal. On to `O=[N+]([O-])c1cnc(-c2nc(-c3ccc(OC4CCC4)cc3)no2)[nH]1` [Compound 131, 3-(4-Cyclobutoxyphenyl)-5-(5-nitro-1H-imidazol-2-yl)-1,2,4-oxadiazole], for which the MIC turned out to be 0.5 µg/mL (≈ 1.53 µM) in data set [1] (setting [5]) and 0.25 µg/mL (≈ 0.764 µM) in data set [1] (ATCC43255, Table 1, strain ATCC 43255, read-out: MIC C. difficile). Also, the IC50 in data set [2] (THP-1, 24 h, read-out: LDH (IC50)) was greater than 128 µg/mL; in data set [2] (THP-1, read-out: toxicity IC50 (LDH assay)), greater than 50 µg/mL; in data set [3] it was 41.9 ± 4.5 µg/mL (≈ 128 µM).

`Cl.O=[N+]([O-])c1c[nH]c(-c2nc(-c3ccc(CN4CCCC4)cc3)no2)n1` [Compound 130]: in data set [1] (C. difficile ATCC 43255, 48-h incubation, Hydrochloride), the “MIC (μg/mL) 48 h” value is greater than 128 µg/mL. Also, the MIC in data set [1] (setting [5]) is greater than 128 µg/mL. Besides, the solubility entry in data set [4] was “barely soluble in DMSO”.
